From ChEMBL document CHEMBL6078710, “Design, synthesis and biological evaluation of new SIRT3 activators for the treatment of triple-negative breast cancer” (Bioorg Med Chem, 2025)

Key:
BT-549 = test: Antiproliferative activity against human BT-549 cells assessed as inhibition of cell proliferation by MTT assay
MDA-MB-231 = test: Antiproliferative activity against human MDA-MB-231 cells assessed as inhibition of cell proliferation by MTT assay
[1] = molecular target: T1, NAD-dependent protein deacetylase sirtuin-3, mitochondrial (Homo sapiens, UniProt Q9NTG7); test: Activation of SIRT3 (unknown origin)
T1 sequence (Q9NTG7 whole entry): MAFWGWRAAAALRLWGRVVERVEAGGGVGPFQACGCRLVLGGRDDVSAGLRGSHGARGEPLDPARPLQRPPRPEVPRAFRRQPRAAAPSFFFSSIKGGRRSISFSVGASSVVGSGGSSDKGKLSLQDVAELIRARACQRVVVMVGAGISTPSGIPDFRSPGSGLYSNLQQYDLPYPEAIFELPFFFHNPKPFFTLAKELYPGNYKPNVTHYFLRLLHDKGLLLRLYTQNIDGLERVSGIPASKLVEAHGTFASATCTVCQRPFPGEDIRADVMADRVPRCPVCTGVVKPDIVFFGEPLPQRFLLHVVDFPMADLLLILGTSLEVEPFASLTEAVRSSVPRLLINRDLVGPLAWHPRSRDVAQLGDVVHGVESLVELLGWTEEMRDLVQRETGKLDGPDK

| SMILES | IC50 (BT-549) | IC50 (MDA-MB-231) | EC50 [1] |
| --- | --- | --- | --- |
| CCOC(=O)C1=CN(C(=O)c2cc(OC)c(OC)c(OC)c2)C=C(C(=O)OCC)C1c1cnc(Cl)c(Cl)c1 | 2.77 µM | 5.78 µM |  |
| CC(C)C[C@@H]1NC(=O)CCN2C(=O)CC3(CC(C)(C)C(=O)N3S(=O)(=O)c3cccc(c3)C(=O)OCCOC(=O)[C@H](Cc3ccccc3)NC1=O)C2=O (some centres undefined) |  |  | 29.4 µM |
| CCOC(=O)C1=CN(C(=O)c2cc(OC)c(OC)c(OC)c2)C=C(C(=O)OCC)C1c1ccccc1 | 4.79 µM | 5.23 µM |  |
| CCOC(=O)C1=CN(C(=O)c2cc(OC)c(OC)c(OC)c2)C=C(C(=O)OCC)C1c1ccc(S(C)(=O)=O)cc1 | 8.21 µM | 14.2 µM |  |
| CCOC(=O)C1=CN(C(=O)c2ccc(OC)c(OC)c2)C=C(C(=O)OCC)C1c1ccc(S(C)(=O)=O)cc1 | 11.9 µM | 15.2 µM |  |
